# Laboratory results: patent US8685974B2 (Bayer CropScience AG, priority 2009, dated 2014)
# Like-named read-outs stand apart in the source and are kept apart here. Marks after values point to notes of the source that are not given here.
# Key:
# [1] = test system: Leptosphaeria nodorum; test: Leptosphaeria nodorum test (wheat) / protective; format: in vivo; details: 500 ppm active compound, protective spray, evaluated 7-9 days after inoculation
# Procedure, shortened: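 Young wheat plants sprayed protectively with compound in DMF/alkylaryl polyglycol ether emulsion diluted in water, then kept in greenhouse at 90% rel. humidity, 22° C. Scored 7-9 days after inoculation as % efficacy, 0% equal to untreated control and 100% no infection.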
# [2] = for logP value of the minor isomer (in parenthesis in column Isomer ratio [d]): main value of the example measured by method [b]
# [3] = test system: Cochliobolus miyabeanus; test: Cochliobolus test (rice) / protective; format: in vivo; details: 500 ppm active compound, protective spray, evaluated 4 days after inoculation
# [4] = test system: Mycosphaerella graminicola; test: In vivo test on Mycosphaerella graminicola (wheat leaf spot); details: dose of 500 ppm; wheat plants; grading 21 to 28 days after contamination
# Protocol: In Vivo Test on Mycosphaerella graminicola (Wheat Leaf Spot)
# The active ingredients tested are prepared by homogenization in a mixture of acetone/tween/DMSO, then diluted with water to obtain the desired active material concentration.
# Wheat plants (Scipion variety), sown on a 50/50 peat soil-pozzolana substrate in starter cups and grown at 12° C., are treated at the 1-leaf stage (10 cm tall) by spraying with the aqueous suspension described above. Plants, used as controls, are treated with an aqueous solution not containing the active material.
# After 24 hours, the plants are contaminated by spraying them with an aqueous suspension of Mycosphaerella graminicola spores (500 000 spores per ml). The spores are collected from a 7-day-old culture. The contaminated wheat plants are incubated for 72 hours at 18° C. and at 100% relative humidity, and then for 21 to 28 days at 90% relative humidity.
# Grading (% of efficacy) is carried out 21 to 28 days after the contamination, in comparison with the control plants.
# [5] = test system: Puccinia recondita; test: In vivo test on Puccinia recondita (brown rust); details: dose of 500 ppm; wheat plants; grading 10 days after contamination
# Protocol: In Vivo Test on Puccinia recondita (Brown Rust)
# (§1) The active ingredients tested are prepared by homogenization in a mixture of acetone/tween/DMSO, then diluted with water to obtain the desired active material.
# Wheat plants (Scipion variety) sown on 50/50 peat soil-pozzolana substrate in starter cups and grown at 12° C., are treated at the 1-leaf stage (10 cm tall) by spraying with the aqueous suspension described above.
# (§2) Plants, used as controls, are treated with an aqueous solution not containing the active material.
# After 24 hours, the plants are contaminated by spraying the leaves with an aqueous suspension of Puccinia recondita spores (100,000 spores per ml). The spores are collected from a 10-day-old contaminated wheat and are suspended in water containing 2.5 ml/l of tween 80 10%. The contaminated wheat plants are incubated for 24 hours at 20° C. and at 100% relative humidity, and then for 10 days at 20° C. and at 70% relative humidity.
# Grading is carried out 10 days after the contamination, in comparison with the control plants.
# [6] = test system: Rhizoctonia solani; test: Rhizoctonia test (rice) / protective; format: in vivo; details: 500 ppm active compound, protective spray, evaluated 4 days after inoculation
# Protocol: Rhizoctonia Test (Rice)/Protective
# Solvent: 28.5 parts by weight of acetone
# Emulsifier: 1.5 parts by weight of polyoxyethylene alkyl phenyl ether
# To produce a suitable preparation of active compound, 1 part by weight of active compound is mixed with the stated amounts of solvent and emulsifier, and the concentrate is diluted with water to the desired concentration.
# To test for protective activity, young plants are sprayed with the preparation of active compound at the stated rate of application. One day after spraying, the plants are inoculated with a hypha of the causal agent of rice sheath blight (Rhizoctonia solani). The plants are then placed in an incubator at approximately 25° C. and a relative atmospheric humidity of approximately 100%.
# The test is evaluated 4 days after the inoculation. 0% means an efficacy which corresponds to that of the control, while an efficacy of 100% means that no disease is observed.
# [7] = test system: Alternaria solani; test: Alternaria test (tomato) / protective; format: in vivo; details: 500 ppm active compound, protective spray, evaluated 7 days after inoculation
# Procedure, shortened: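 Young tomato plants sprayed protectively with compound formulated in DMF with alkylaryl polyglycol ether emulsifier and diluted in water to the application rate. After inoculation, plants held at 96% rel. humidity and 20° C. Efficacy scored 7 days post-inoculation: 0% equals untreated control, 100% no infection.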
# [8] = test system: Botrytis cinerea; test: In vivo test on Botrytis cinerea (grey mould); details: dose of 500 ppm; gherkin plants; grading 5/7 days after contamination
# Protocol: In Vivo Test on Botrytis cinerea (Grey Mould)
# The active ingredients tested are prepared by homogenization in a mixture of acetone/Tween/DMSO, then diluted with water to obtain the desired active material
# Gherkin plants (Vert petit de Paris variety), sown on a 50/50 peat soil-pozzolana substrate in starter cups and grown at 18-20° C., are treated at the cotyledon Z11 stage by spraying with the active ingredient prepared as described above.
# as §2
# After 24 hours, the plants are contaminated by depositing drops of an aqueous suspension of Botrytis cinerea spores (150,000 spores per ml) on upper surface of the leaves. The spores are collected from a 15-day-old culture and are suspended in a nutrient solution composed of: • 20 g/L of gelatine; • 50 g/L of D-fructose; • 2 g/L of NH4NO3; • 1 g/L of KH2PO4.
# The contaminated cucumber plants are settled for 5/7 days in a climatic room at 15-11° C. (day/night) and at 80% relative humidity.
# Grading is carried out 5/7 days after the contamination, in comparison with the control plants.
# [9] = test system: Sphaerotheca fuliginea; test: In vivo test on Sphaerotheca fuliginea (cucurbits powdery mildew); details: dose of 500 ppm; gherkin plants; grading 12 days after contamination
# Protocol: In Vivo Test on Sphaerotheca fuliginea (Cucurbits Powdery Mildew)
# as §1
# Gherkin plants (Vert petit de Paris variety) in starter cups, sown on a 50/50 peat soil-pozzolana substrate and grown at 20° C./23° C., are treated at the cotyledon Z10 stage by spraying with the aqueous suspension described above. Plants, used as controls, are treated with an aqueous solution not containing the active material.
# After 24 hours, the plants are contaminated by spraying them with an aqueous suspension of Sphaerotheca fuliginea spores (100 000 spores per ml). The spores are collected from a contaminated plants. The contaminated gherkin plants are incubated at about 20° C./25° C. and at 60/70% relative humidity.
# Grading (% of efficacy) is carried out 12 days after the contamination, in comparison with the control plants.
# [10] = test system: Pyrenophora teres; test: In vivo test on Pyrenophora teres (barley net blotch); details: dose of 500 ppm; barley plants; grading 12 days after contamination
# Procedure, shortened: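 Barley plants (Plaisant) grown at 12° C. sprayed at 1-leaf stage with compound in acetone/Tween/DMSO diluted in water; 24 h later inoculated with P. teres spores (12,000 spores/ml). Incubated 24 h at ~20° C., 100% RH, then 12 days at 80% RH; graded 12 days post-inoculation against untreated controls.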
# [11] = test system: Pyricularia oryzae; details: in vivo
# [12] = test system: Pyricularia grisea; details: in vivo
# [13] = test system: Peronospora parasitica; test: In vivo test on Peronospora parasitica (crucifer downy mildew); details: dose of 500 ppm; cabbage plants; grading 5 days after contamination
# Protocol: In Vivo Test on Peronospora parasitica (Crucifer Downy Mildew)
# The active ingredients tested are prepared by homogenization in a mixture of acetone/Tween/DMSO, then diluted with water to obtain the desired active material concentration.
# Cabbage plants (Eminence variety) in starter cups, sown on a 50/50 peat soil-pozzolana substrate and grown at 18-20° C., are treated at the cotyledon stage by spraying with the aqueous suspension described above.
# as §2
# After 24 hours, the plants are contaminated by spraying them with an aqueous suspension of Peronospora parasitica spores (50 000 spores per ml). The spores are collected from infected plant.
# The contaminated cabbage plants are incubated for 5 days at 20° C., under a humid atmosphere.
# Grading is carried out 5 days after the contamination, in comparison with the control plants.
# [14] = test system: Fusarium proliferatum; test: Production of fumonisin FB1 by Fusarium proliferatum (microtiter plate, HPLC-MS/MS and OD620); format: cell-based
# [15] = method [c]: LC-MS at pH 7.8, 0.001 molar ammonium hydrogen carbonate, gradient 10% to 95% acetonitrile
# [16] = test system: Fusarium graminearum; format: cell-based; details: 50 μM; for % Inhibition of DON/AcDON at 50 μM: 7 days at 28° C.
# [17] = test system: Aspergillus parasiticus; format: cell-based; details: for % Inhibition of Aflatoxin at 50 μM: 7 days at 20° C.
# [18] = test system: Phakopsora pachyrhizi; details: 250 ppm active substance; protective; assessment 11 days after inoculation
SMILES,log p ([2]; pH 2.7),efficacy [3],protection [5],efficacy [6],efficacy [7],protection [10],protection [13],other results
CCC(CC)n1cc(-c2ccncc2)c(-c2ccc(Cl)s2)n1 [Example 64],2.18^[b],97%,88%,100%,80%,95%,,efficacy [1]: 78%; protection (% of efficacy) [4]: 88%; protection [8]: 98%; protection (% of efficacy) [9]: 98%
FC(F)(F)Cn1cc(-c2ccncc2)c(-c2ccc(Cl)s2)n1 [Example 54],1.88^[b],90%,,100%,,,,
C#CCn1cc(-c2ccncc2)c(-c2ccc(Cl)s2)n1 [Example 47],1.54^[b],,71%,,95%,70%,100%,efficacy [11]: 86%; logP value of the minor isomer (in parenthesis in column Isomer ratio [d]) ([2]; pH 2.7): (1.36); protection (% of efficacy) [12]: 86%
CC(C)n1cc(-c2ccncc2)c(-c2ccc(Cl)s2)n1 [Example 38],1.88^[b],93%,72%,97%,,,97%,"efficacy [11]: 98%; log p ([2]; pH 2.3): 1.63^[a];; protection (% of efficacy) [12]: 98%; % inhibition FB1 production at 50 μM ([14]; 5 days at 20° C., HPLC-MS/MS): 100%; % inhibition fungal growth at 50 μM ([14]; Fusarium proliferatum, OD620 at start and after 5 days): 88%; protection [8]: 100%; protection (% of efficacy) [9]: 83%"
CCC(C)n1cc(-c2ccnc(N)c2)c(-c2ccc(Cl)s2)n1 (centres unmarked) [Example 317],,,,,,,,log p [15]: 3.31^[c]; % Inhibition of fungal growth at 50 μM [16]: 78%; % Inhibition of DON/AcDON at 50 μM [16]: 100%
C=CC(C)n1cc(-c2ccncc2)c(-c2ccc(Cl)s2)n1 (racemic) [Example 61],1.91^[b],92%,77%,98%,,,100%,logP value of the minor isomer (in parenthesis in column Isomer ratio [d]) ([2]; pH 2.7): (1.76); protection (% of efficacy) [4]: 77%; protection (% of efficacy) [9]: 94%
CCC(C)n1cc(-c2ccnc(N=C(c3ccccc3)c3ccccc3)c2)c(-c2ccc(Cl)s2)n1 (centres unmarked) [Example 308],,,,,,,,log p [15]: 6.5^[c]
Nc1cc(-c2cn(CCF)nc2-c2ccc(Cl)s2)ccn1 [Example 296],1.46^[b],,,,,70%,,% Inhibition of fungal growth at 50 μM [17]: 47%; % Inhibition of Aflatoxin at 50 μM [17]: 74%
CCC(C)n1nc(-c2ccc(Cl)s2)c(-c2ccncc2)c1SC (centres unmarked) [Example 298],3.35^[b],,,,95%,,,% Inhibition of fungal growth at 50 μM [17]: 64%; % Inhibition of Aflatoxin at 50 μM [17]: 99%; % Inhibition of fungal growth at 50 μM [16]: 38%; % Inhibition of DON/AcDON at 50 μM [16]: 100%
Cn1cc(-c2ccncc2)c(-c2ccc(Cl)s2)n1 [Example 46],1.26^[b],,,,95%,70%,92%,efficacy [11]: 93%; logP value of the minor isomer (in parenthesis in column Isomer ratio [d]) ([2]; pH 2.7): (1.17); protection (% of efficacy) [12]: 93%
CCC(C)n1cc(-c2ccncc2)c(-c2ccc(Cl)s2)n1 (centres unmarked) [Example 8],2.1^[b],,86%,,,100%,92%,activity level [18]: 98%; protection [8]: 100%
